From patent US20170246311A1, “PEPTIDES FOR BINDING ALTERNATIVELY ACTIVATED MACROPHAGES” (University of Washington, priority 2016, published 2017)
Like-named read-outs stand apart in the source and are kept apart here. Positions of bridges follow the written chain, without caps; N, C: chain ends. Non-standard residues stand in square brackets, D forms with d. Residues, ends and D or L forms follow the SMILES beside them. *: point of attachment. Biotin = O=C1N[C@H]2[C@H](CS[C@H]2CCCCC(=O)*)N1

How the values were obtained:
M2 macrophages [1] = assay: Binding study of biotinylated peptides on polarized bone marrow-derived macrophages (streptavidin-FITC, flow cytometry); type: cell-based, mouse; settings: for Kd: M2 macrophages, half-maximal MFI, read-out: apparent dissociation constant (KD); for binding activity to M2 macrophages (in words): biotinylated peptide, on ice 20 min
Protocol: All animal handling protocols were approved by the University of Washington Institutional Animal Care and Use Committee. Bone marrow harvest was performed following the previously reported protocol. Briefly, femur and tibia were excised from 6-8 week-old female c57bl6/027 mice. Cuts were made on the ends of each bone, and RPMI 1640 medium was used to flush out bone marrow cells via 18G needle. The cells were cultured on petri dishes in RPMI 1640 medium supplemented with 20% donor horse serum, 1% antibiotic-antimycotic (AbAm), and 20 ng/mL M-CSF. After 7 d of culture, macrophages were activated by replacing M-CSF with 25 ng/mL IFN-γ and 100 ng/mL LPS for M1 macrophage or 25 ng/mL IL-4 for M2 macrophage. The macrophages were activated for 2 d and then scraped off the petri dishes with cell lifter for binding studies.
(§1) Peptide solutions at different concentrations for binding study were prepared by dilutions from the stock solution (10 mg/mL in dH2O) with PBS containing 1% BSA (PBSA). M1 and M2 macrophages (50,000 cells/well) were seeded on a black 96-well plate and incubated in the peptide solutions on ice for 20 min. Unbound peptides were washed off with PBSA twice. The macrophages were subsequently incubated with streptavidin-FITC for 15 min on ice to probe for the bound peptides. Excess streptavidin-FITC was washed off with PBSA twice, and the macrophages were then resuspended in PBS for analysis by MACSQuant Flow Cytometer (Miltenyi Biotec, San Diego, Calif.). Propidium iodide was added to the samples before the data acquisition to discriminate dead cells. Flow cytometry data were analyzed with FlowJo Analysis Software (Tree Star, Ashland, Oreg.). Binding study of peptides post serum incubation was similarly performed with the following additions: The peptides (5 mM stock solution in H2O) were diluted in serum to a final concentration of 0.5 mM and incubated at 37° C. in an incubator. At each time point, an aliquot of the peptides was drawn and diluted in PBS to the final concentration for the binding study. The diluted aliquot was heated at 80° C. for 30 min to inactivate serum proteins, stored in a −20° C. freezer, and thawed for use in the binding study after aliquots at all time points were collected.
All animal handling protocols were approved by the University of Washington Institutional Animal Care and Use Committee. Bone marrow-derived cells were harvested from female c57bl/6 mice as previously described. In brief, femurs and tibias of the mice were excised and flushed with RPMI 1640 medium via an 18G needle. The cells were cultured on petri dishes containing RPMI 1640 medium supplemented with 20% donor horse serum, 1% antibioticantimycotic (AbAm), and 20 ng/mL M-CSF. After 7 d in culture, the medium was replaced with an activation medium whereby M-CSF was replaced with 25 ng/mL IFN-γ and 100 ng/mL LPS for M1 activation or with 25 ng/mL IL-4 for M2 activation. For M1 activation medium, AbAm was replaced with 1% penicillin-streptomycin (Pen-Strep). After 2 d of activation, the activated macrophages were scraped off the petri dishes for binding studies.
Biotinylated peptide stock solutions were prepared in H2O at 10 mg/mL concentration and quantified for the exact concentration using Quant*Tag Biotin quantification kit. The stock solutions were diluted in PBS with 1% BSA (PBSA) to different concentrations for binding studies. Activated macrophages were seeded on a black 96-well plate (50,000 cells/well) and incubated with the peptide solutions for 20 min on ice. The cells were washed twice with PBSA and subsequently incubated with streptavidin-FITC for 15 min on ice. After two additional washes, the cells were resuspended in PBS for analysis via MACSQuant Flow Cytometer (Miltenyi Biotec, San Diego, Calif.). Propidium iodide (PI) was added before running each sample to assess for cell viability. Data analysis was processed on FlowJo Analysis Software (Tree Star, Ashland, Oreg.). […]

M2 macrophages [2] = assay: Binding of M2pep analogs post serum incubation; type: cell-based, mouse; settings: for decline in binding activity with serum pre-incubation: 150 μM of M2pepBiotin, 50 μM of AcM2pep(RY)Biotin and cyclic M2pep(RY)Biotin, mouse serum 37° C.
Protocol: as §1
For TAM targeting applications, M2pep analogs will be exposed to serum during systemic circulation. Therefore, we next studied how the serum stability of M2pep analogs affects subsequent binding to target cells. Peptides were incubated with mouse serum at 37° C. to mimic peptidase exposure in systemic circulation, and aliquots of the serum were withdrawn at various time points for binding studies with polarized macrophages. In general, binding activity of the M2pep analogs corresponded with the peptides' serum stability (FIG. 6). […]

[3] = Serum stability study in normal mouse serum, analysis by MALDI-TOF MS; settings: for overall serum stability (in words): MALDI-TOF MS
Protocol: The peptide of interest (30 μL of 10 mg/mL stock solution in dH2O) was added to normal mouse serum (300 μL) and incubated at 37° C. in an incubator. At each time point, an aliquot of 40 μL was drawn and an equal volume of ACN was added to the aliquot to precipitate serum proteins. The cloudy mixture was centrifuged at 10,000 rpm for 5 min and then supernatant removed. A solution of 1:1 H2O/ACN (80 μL) was added to the pellet and sonicated for 10 min to further extract the remaining peptides. This resuspended mixture was then centrifuged, and the supernatant was pooled with the former and vacuum-dried on a Speedvac machine. The dried pellet was solubilized in H2O (50 μL) by sonication for 10 min. The mixture was then centrifuged, and the supernatant was drawn and analyzed by MALDI-TOF MS.
To evaluate serum stability of M2pep, the peptide was incubated in mouse serum, and aliquots of the serum at various time points were withdrawn for analysis of degradation patterns by MALDI-TOF MS.
Different M2pep analogs (30 μL from 10 mg/mL stock solution in H2O) were incubated in normal mouse serum (300 μL) at 37° C. in an incubator. An aliquot of the serum (40 μL) was drawn at different time intervals and precipitated with an equal volume of cold ACN. The mixture was centrifuged at 15,000 rpm for 5 min, and the supernatant was collected. A solution of H2O/ACN (1:1 v/v, 80 μL) was added to the pellet with a 10-min sonication to further extract residual peptides. The mixture was then centrifuged. The supernatant was pooled with the former and dried under vacuum on a Speedvac machine. The peptide pellet was resuspended in H2O (50 μL) with a 10-min sonication before analysis by MALDI-ToF MS.

SMILES | decline in binding activity with serum pre-incubation (M2 macrophages [2]) | overall serum stability (in words) ([3]; mouse serum, 37° C.) | binding activity to M2 macrophages (in words) (M2 macrophages [1]) | serum stability at the W10/W11 endolytic cleavage site ([3]; mouse serum) | other results
CC(C)[C@H](NC(=O)CNC(=O)[C@H](Cc1c[nH]c2ccccc12)NC(=O)[C@@H]1CCCN1C(=O)[C@H](CC(=O)O)NC(=O)[C@H](CCC(N)=O)NC(=O)[C@H](CCC(=O)O)NC(=O)[C@@H](N)Cc1ccc(O)cc1)C(=O)N[C@@H](CCCCN)C(=O)N[C@@H](Cc1c[nH]c2ccccc12)C(=O)N[C@@H](Cc1c[nH]c2ccccc12)C(=O)N[C@@H](Cc1ccc(O)cc1)C(=O)NCC(=O)NCC(=O)NCC(=O)N[C@@H](CO)C(=O)N[C@@H](CCCCN)C(=O)N[C@@H](CCCCN)C(=O)N[C@@H](CCCCNC(=O)CCCC[C@@H]1SC[C@@H]2NC(=O)N[C@@H]21)C(N)=O [M2pepBiotin, YEQDPWGVKWWYGGGSKK] | fastest and greatest decline in binding activity | Poor serum stability | – | – | Kd (M2 macrophages [1]): 220 µM
CC(=O)N[C@@H](Cc1ccc(O)cc1)C(=O)N[C@@H](CCC(=O)O)C(=O)N[C@@H](CCC(N)=O)C(=O)N[C@@H](CC(=O)O)C(=O)N1CCC[C@H]1C(=O)N[C@@H](Cc1c[nH]c2ccccc12)C(=O)NCC(=O)N[C@H](C(=O)N[C@@H](CCCCN)C(=O)N1CCC[C@H]1C(=O)N[C@@H](Cc1c[nH]c2ccccc12)C(=O)N[C@@H](Cc1ccc(O)cc1)C(=O)NCC(=O)NCC(=O)NCC(=O)N[C@@H](CO)C(=O)N[C@H](CCCCN)C(=O)N[C@H](CCCCN)C(=O)N[C@H](CCCCN)C(=O)N[C@@H](CCCCNC(=O)CCCC[C@@H]1SC[C@@H]2NC(=O)N[C@@H]21)C(N)=O)C(C)C [W10P, Ac-YEQDPWGVKPWYGGGSkkk] (Ac-YEQDPWGVKPWYGGGS[dK][dK][dK]K(Biotin)-NH2) | – | – | abrogated the binding activity | did not confer protection at the W10/W11 site | –
CC(=O)N[C@@H](Cc1ccc(O)cc1)C(=O)N[C@@H](CCC(=O)O)C(=O)N[C@@H](CCC(N)=O)C(=O)N[C@@H](CC(=O)O)C(=O)N1CCC[C@H]1C(=O)N[C@@H](Cc1c[nH]c2ccccc12)C(=O)NCC(=O)N[C@H](C(=O)N[C@@H](CCCCN)C(=O)N[C@@H](Cc1ccc(O)cc1)C(=O)N[C@@H](Cc1c[nH]c2ccccc12)C(=O)N[C@@H](Cc1ccc(O)cc1)C(=O)NCC(=O)NCC(=O)NCC(=O)N[C@@H](CO)C(=O)N[C@H](CCCCN)C(=O)N[C@H](CCCCN)C(=O)N[C@H](CCCCN)C(=O)N[C@@H](CCCCNC(=O)CCCC[C@@H]1SC[C@@H]2NC(=O)N[C@@H]21)C(N)=O)C(C)C [W10Y, Ac-YEQDPWGVKYWYGGGSkkk] (Ac-YEQDPWGVKYWYGGGS[dK][dK][dK]K(Biotin)-NH2) | – | – | significantly increased binding activity | did not confer protection at the W10/W11 site | –
CC(=O)N[C@@H](Cc1ccc(O)cc1)C(=O)N[C@@H](CCC(=O)O)C(=O)N[C@@H](CCC(N)=O)C(=O)N[C@@H](CC(=O)O)C(=O)N1CCC[C@H]1C(=O)N[C@@H](Cc1c[nH]c2ccccc12)C(=O)NCC(=O)N[C@H](C(=O)N[C@@H](CCCCN)C(=O)N[C@H](Cc1c[nH]c2ccccc12)C(=O)N[C@@H](Cc1c[nH]c2ccccc12)C(=O)N[C@@H](Cc1ccc(O)cc1)C(=O)NCC(=O)NCC(=O)NCC(=O)N[C@@H](CO)C(=O)N[C@@H](CCCCN)C(=O)N[C@@H](CCCCN)C(=O)N[C@@H](CCCCN)C(=O)N[C@@H](CCCCNC(=O)CCCC[C@@H]1SC[C@@H]2NC(=O)N[C@@H]21)C(N)=O)C(C)C [W10w, Ac-YEQDPWGVKwWYGGGSKKK] | – | – | abrogated binding activity | effective protection against endolytic cleavage at the W10/W11 site | –
CC(=O)N[C@@H](Cc1ccc(O)cc1)C(=O)N[C@@H](CCC(=O)O)C(=O)N[C@@H](CCC(N)=O)C(=O)N[C@@H](CC(=O)O)C(=O)N1CCC[C@H]1C(=O)N[C@@H](Cc1c[nH]c2ccccc12)C(=O)NCC(=O)N[C@H](C(=O)N[C@@H](CCCNC(=N)N)C(=O)N[C@@H](Cc1ccc(O)cc1)C(=O)N[C@@H](Cc1c[nH]c2ccccc12)C(=O)N[C@H](Cc1ccc(O)cc1)C(=O)NCC(=O)NCC(=O)NCC(=O)N[C@@H](CO)C(=O)N[C@H](CCCCN)C(=O)N[C@H](CCCCN)C(=O)N[C@H](CCCCN)C(=O)N[C@@H](CCCCNC(=O)CCCC[C@@H]1SC[C@@H]2NC(=O)N[C@@H]21)C(N)=O)C(C)C [Y12y, Ac-YEQDPWGVRYWyGGGSkkk] (Ac-YEQDPWGVRYW[dY]GGGS[dK][dK][dK]K(Biotin)-NH2) | – | – | reduced binding activity | did not improve serum stability at the W10/W11 site | –
CC(C)[C@@H]1NC(=O)CNC(=O)[C@H](Cc2c[nH]c3ccccc23)NC(=O)[C@@H]2CCCN2C(=O)[C@H](CC(=O)O)NC(=O)[C@H](CCC(N)=O)NC(=O)[C@H](CCC(=O)O)NC(=O)[C@H](Cc2ccc(O)cc2)NC(=O)CNC(=O)[C@@H](N)CSSC[C@@H](C(=O)N[C@H](CCCCN)C(=O)N[C@H](CCCCN)C(=O)N[C@H](CCCCN)C(=O)N[C@@H](CCCCNC(=O)CCCC[C@@H]2SC[C@@H]3NC(=O)N[C@@H]32)C(N)=O)NC(=O)CNC(=O)[C@H](Cc2ccc(O)cc2)NC(=O)[C@H](Cc2c[nH]c3ccccc23)NC(=O)[C@H](Cc2ccc(O)cc2)NC(=O)[C@H](CCCNC(=N)N)NC1=O [cyclic M2pep(RY)Biotin, CGYEQDPWGVRYWYGCkkk] (H-CGYEQDPWGVRYWYGC[dK][dK][dK]K(Biotin)-NH2; disulfide 1-16) | least decline | markedly improved serum stability over the linear AcM2pep(RY)Biotin | comparable binding activity to the linear AcM2pep(RY)Biotin | – | Kd (M2 macrophages [1]; listed as disulfide-cyclized M2pep(RY)): 36.3 µM; binding activity after 24 h serum incubation (M2 macrophages [2]; 24 h in mouse serum at 37° C.): retained the highest binding activity; serum incubation time at which the peptide remained detectable by MALDI-TOF MS ([3]; mouse serum, 37° C.): ≥ 48 h; time without endolytic cleavage at the W10/W11 site ([3]; mouse serum, 37° C.): at least 8 h; incubation in mouse serum after which the cyclized peptide was eventually degraded ([3]; prolonged incubation in mouse serum): more than 1 day
